Test results reported in patent publication US7973181B2, “Hydroxamic acid derivatives as inhibitors of HDAC enzymatic activity” (Chroma Therapeutics Ltd., priority 2005, dated 2011).

Key:
Hela = experiment: Cell inhibition assay (SRB cell viability), Hela; type: cell-based; details: 72 h, Hela cells
Method: (§1) The corresponding cancer cell lines (Hela, U937 and HUT) growing in log phase were harvested and seeded at 1000 cells/well (200 ul final volume) into 96-well tissue culture plates. Following 24 h of cell growth cells were treated with compounds (final concentration of 20 uM). Plates were then re-incubated for a further 72 h before a sulphorhodamine B (SRB) cell viability assay was conducted according to Skehan 1990 J Natl Canc Inst 82, 1107-1112.
(§2) Data were expressed as a percentage inhibition of the control, measured in the absence of inhibitor, as follows: — % inhibition=100−((S^i/S^o)×100) where S^i is the signal in the presence of inhibitor and S^o is the signal in the presence of DMSO.
(§3) IC50 values were determined by non-linear regression analysis, after fitting the results of eight data points to the equation for sigmoidal dose response with variable slope (% activity against log concentration of compound), using Graphpad Prism software.
(§4) Results of testing the compounds of the examples in this assay are given in the third- fifth columns of Table 1.

[1] = molecular target: histone deacetylase activity (HeLa nuclear extract); experiment: HDAC fluorescent activity assay (Biomol Fluor de Lys), HeLa nuclear extract; type: biochemical; details: Fluor de Lys substrate
Method: The ability of compounds to inhibit histone deacetylase activities was measured using the commercially available HDAC fluorescent activity assay from Biomol. In brief, the Fluor de Lys™ substrate, a lysine with an epsilon-amino acetylation, is incubated with the source of histone deacetylase activity (HeLa nuclear extract) in the presence or absence of inhibitor.
Deacetylation of the substrate sensitises the substrate to Fluor de Lys™ developer, which generates a fluorophore. Thus, incubation of the substrate with a source of HDAC activity results in an increase in signal that is diminished in the presence of an HDAC inhibitor.
Data are expressed as a percentage of the control, measured in the absence of inhibitor, with background signal being subtracted from all samples, as follows: — % activity=((S^i−B)/(S^o−B))×100 where S^i is the signal in the presence of substrate, enzyme and inhibitor, S^o is the signal in the presence of substrate, enzyme and the vehicle in which the inhibitor is dissolved, and B is the background signal measured in the absence of enzyme.
as §3
Histone deacetylase activity from crude nuclear extract derived from HeLa cells was used for screening. The preparation, purchased from 4C (Seneffe, Belgium), was prepared from HeLa cells harvested whilst in exponential growth phase. The nuclear extract is prepared according to Dignam JD1983 Nucl. Acid. Res. 11, 1475-1489, snap frozen in liquid nitrogen and stored at −80° C. The final buffer composition was 20 mM Hepes, 100 mM KCl, 0.2 mM EDTA, 0.5 mM DTT, 0.2 mM PMSF and 20% (v/v) glycerol.
Results of testing the compounds of the examples in this assay are given in the second column of Table 1 below.

HUT = experiment: Cell inhibition assay (SRB cell viability), HUT; type: cell-based
Method: as §1, §2, §3, §4

U937 = experiment: Cell inhibition assay (SRB cell viability), U937; type: cell-based; details: U937 cells
Method: as §1, §2, §3, §4

SMILES	IC50 (Hela; Homo sapiens, HeLa)	IC50 [1]	IC50 (HUT; 72 h, HUT cells)	IC50 (U937; Homo sapiens, U-937, 72 h)	IC50 (Hela)	IC50 (HUT; HUT cells, 72 h)	IC50 (U937; 72 h)
CC(=O)N[C@@H](Cc1ccc(NC(=O)CCCCCCC(=O)NO)cc1)C(=O)OC1CCCC1 [Example 1, (S)-2-Acetylamino-3-[4-(7-hydroxycarbamoyl-heptanoylamino)-phenyl]-propionic acid cyclopentyl ester]	> 3.3 µM	0.101 to 1 µM	0.33 to 3.3 µM	0.33 to 3.3 µM	–	–	–
CC(=O)N[C@@H](Cc1ccc(NC(=O)CCCCCCC(=O)NO)cc1)C(=O)O [Example 2, (S)-2-Acetylamino-3-[4-(7-hydroxycarbamoyl-heptanoylamino)-phenyl]-propionic acid]	> 3.3 µM	0.101 to 1 µM	> 3.3 µM	> 3.3 µM	–	–	–
CC(=O)N[C@H](Cc1ccc(NC(=O)CCCCCCC(=O)NO)cc1)C(=O)OC1CCCC1 [Example 3, (R)-2-Acetylamino-3-[4-(7-hydroxycarbamoyl-heptanoylamino)-phenyl]-propionic acid cyclopentyl ester]	> 3.3 µM	0.101 to 1 µM	0.33 to 3.3 µM	> 3.3 µM	–	–	–
CC(=O)N[C@H](Cc1ccc(NC(=O)CCCCCCC(=O)NO)cc1)C(=O)O [Example 4, (R)-2-Acetylamino-3-[4(7-hydroxycarbamoyl-heptanoylamino)-phenyl]-propionic acid]	> 3.3 µM	> 1 µM	> 3.3 µM	> 3.3 µM	–	–	–
N[C@@H](CCOc1cccc(NC(=O)CCCCCCC(=O)NO)c1)C(=O)OC1CCCC1 [Example 5, (S)-2-Amino-4-[3-(7-hydroxycarbamoyl-heptanoylamino)-phenoxy]-butyric acid cyclopentyl ester]	0.33 to 3.3 µM	< 0.1 µM	0.33 to 3.3 µM	0.33 to 3.3 µM	–	–	–
N[C@@H](CCOc1cccc(NC(=O)CCCCCCC(=O)NO)c1)C(=O)O [Example 6, (S)-2-Amino-4-[3-(7-hydroxycarbamoyl-heptanoylamino)-phenoxy]-butyric acid]	> 3.3 µM	0.101 to 1 µM	0.33 to 3.3 µM	0.33 to 3.3 µM	–	–	–
N[C@@H](CCOc1ccc(NC(=O)CCCCCCC(=O)NO)cc1)C(=O)OC1CCCC1 [Example 7, (S)-2-Amino-4-[4-(7-hydroxycarbamoyl-heptanoylamino)-phenoxy]-butyric acid cyclopentyl ester]	0.33 to 3.3 µM	0.101 to 1 µM	0.33 to 3.3 µM	0.33 to 3.3 µM	–	–	–
N[C@@H](CCOc1ccc(NC(=O)CCCCCCC(=O)NO)cc1)C(=O)O [Example 8, (S)-2-Amino-4-[4-(7-hydroxycarbamoyl-heptanoylamino)-phenoxy]-butyric Acid]	–	0.101 to 1 µM	–	–	–	–	–
N[C@@H](CCOc1ccc(CNCc2ccc3cc(C(=O)NO)sc3c2)cc1)C(=O)OC1CCCC1 [Example 9, (S)-2-Amino-4-(4-{[(2-hydroxycarbamoyl-benzo[b]thiophen-6-ylmethyl)-amino]-methyl}-phenoxy)-butyric acid cyclopentyl ester]	< 0.33 µM	< 0.1 µM	< 0.33 µM	< 0.33 µM	–	–	–
N[C@@H](CCOc1ccc(CNCc2ccc3cc(C(=O)NO)sc3c2)cc1)C(=O)O [Example 10, (S)-2-Amino-4-(4-{[(2-hydroxycarbamoyl-benzo[b]thiophen-6-ylmethyl)-amino]-methyl}-phenoxy)-butyric acid]	–	< 0.1 µM	–	–	–	–	–
N[C@@H](CCCOc1ccc(CNCc2ccc3cc(C(=O)NO)sc3c2)cc1)C(=O)OC1CCCC1 [Example 11, (S)-2-Amino-5-(4-{[(2-hydroxycarbamoyl-benzo[b]thiophen-6-ylmethyl)-amino]-methyl}-phenoxy)-pentanoic acid cyclopentyl ester]	< 0.33 µM	< 0.1 µM	< 0.33 µM	< 0.33 µM	–	–	–
N[C@@H](CCCOc1ccc(CNCc2ccc3cc(C(=O)NO)sc3c2)cc1)C(=O)O [Example 12, (S)-2-Amino-5-(4-{[(2-hydroxycarbamoyl-benzo[b]thiophen-6-ylmethyl)-amino]-methyl}-phenoxy)-pentanoic acid]	–	< 0.1 µM	–	–	–	–	–
N[C@H](CCOc1ccc(CNCc2ccc3cc(C(=O)NO)sc3c2)cc1)C(=O)OC1CCCC1 [Example 13, (R)-2-Amino-4-(4-{[(2-hydroxycarbamoyl-benzo[b]thiophen-6-ylmethyl)-amino]-methyl}phenoxy)-butyric acid cyclopentyl ester]	< 0.33 µM	< 0.1 µM	< 0.33 µM	< 0.33 µM	–	–	–
N[C@H](CCCOc1ccc(CNCc2ccc3cc(C(=O)NO)sc3c2)cc1)C(=O)OC1CCCC1 [Example 15, (R)-2-Amino-5-(4-{[(2-hydroxycarbamoyl-benzo[b]thiophen-6-ylmethyl)-amino]-methyl}-phenoxy)-pentanoic acid cyclopentyl ester]	0.33 to 3.3 µM	< 0.1 µM	< 0.33 µM	< 0.33 µM	–	–	–
N[C@H](CCCOc1ccc(CNCc2ccc3cc(C(=O)NO)sc3c2)cc1)C(=O)O [Example 16, (R)-2-Amino-5-(4-{[(2-hydroxycarbamoyl-benzo[b]thiophen-6-ylmethyl)-amino]-methyl}-phenoxy)-pentanoic acid]	–	< 0.1 µM	–	–	–	–	–
N[C@@H](CCCOc1ccc(CNCc2ccc3cc(C(=O)NO)sc3c2)cc1)C(=O)OC1CCCC1 [Example 17, (S)-2-Amino-5-(4-{[(2-hydroxycarbamoyl-benzo[b]thiophen-6-ylmethyl)-amino]-methyl}-phenoxy)-pentanoic acid cyclopentyl ester]	–	< 0.1 µM	–	–	0.33 to 3.3 µM	0.33 to 3.3 µM	0.33 to 3.3 µM
N[C@@H](CCCOc1ccc(CNCc2ccc3cc(C(=O)NO)sc3c2)cc1)C(=O)O [Example 18, (S)-2-Amino-5-(4-{[(2-hydroxycarbamoyl-benzo[b]thiophen-6-ylmethyl)-amino]-methyl}-phenoxy)-pentanoic acid]	–	0.101 to 1 µM	–	–	–	–	–
COc1cc(CNCc2ccc3cc(C(=O)NO)sc3c2)ccc1OCCC[C@H](N)C(=O)OC1CCCC1 [Example 19, (S)-2-Amino-5-(4-{[(2-hydroxycarbamoyl-benzo[b]thiophen-6-ylmethyl)-amino]-methyl}-2-methoxyphenoxy)-pentanoic acid cyclopentyl ester]	0.33 to 3.3 µM	< 0.1 µM	0.33 to 3.3 µM	0.33 to 3.3 µM	–	–	–
COc1cc(CNCc2ccc3cc(C(=O)NO)sc3c2)ccc1OCCC[C@H](N)C(=O)O [Example 20, (S)-2-Amino-5-(4-{[(2-hydroxycarbamoyl-benzo[b]thiophen-6-ylmethyl)-amino]-methyl}-2-methoxyphenoxy)-pentanoic acid]	–	< 0.1 µM	–	–	–	–	–
O=C(NO)c1cc2ccc(CNCc3ccc(OCCC[C@H](NC4CCCCC4)C(=O)O)cc3)cc2s1 [Example 23, (S)-2-Cyclohexylamino-5-(4-{[(2-hydroxycarbamoyl-benzo[b]thiophen-6-ylmethyl)-amino]-methyl}-phenoxy)-pentanoic acid]	–	< 0.1 µM	–	–	–	–	–
N[C@H](C(=O)O)c1ccc(Oc2ccc(CNCc3ccc4cc(C(=O)NO)sc4c3)cc2)cc1 [Example 25, (S)-Amino-[4-(4-{[(2-hydroxycarbamoyl-benzo[b]thiophen-6-ylmethyl)-amino]-methyl}-phenoxy)-phenyl]-acetic acid]	–	< 0.1 µM	–	–	–	–	–
N[C@@H](Cc1ccc(Oc2ccc(CNCc3ccc4cc(C(=O)NO)sc4c3)cc2)cc1)C(=O)O [Example 27, (S)-2-Amino-3-[4-(4-{[(2-hydroxycarbamoyl-benzo[b]thiophen-6-ylmethyl)-amino]-methyl}-phenoxy)-phenyl]-propionic acid]	–	< 0.1 µM	–	–	–	–	–
N[C@@H](CC1CCC(Oc2ccc(CNCc3ccc4cc(C(=O)NO)sc4c3)cc2)CC1)C(=O)O (stereo partly drawn) [Example 29, 2-(S)-Amino-3-[4-(4-{[(2-hydroxycarbamoyl-benzo[b]thiophen-6-ylmethyl)-amino]-methyl}-phenoxy)-cyclohexyl]-propionic acid]	–	< 0.1 µM	–	–	–	–	–
NC(C(=O)O)C1CCC(Oc2ccc(CNCc3ccc4cc(C(=O)NO)sc4c3)cc2)CC1 (stereo not drawn) [Example 31, Amino-[4(4-{[(2-hydroxycarbamoyl-benzo[b]thiophen-6-ylmethyl)-amino]-methyl}-phenoxy)-cyclohexyl]-acetic acid]	–	< 0.1 µM	–	–	–	–	–
